Source: PubChem BioAssay AID248 (DTP/NCI, 2004)
Inconclusive results and toxic doses are left out. Cut-off read from the data, not from the text of the source: active = T/C of 150% or more; inactive = T/C below 125%.

System: L1210 leukemia ip in BDF1 mice, survival T/C
Assay: NCI In Vivo Anticancer Drug Screen. Data for tumor model L1210 Leukemia (intraperitoneal) in B6D2F1 (BDF1) mice
Settings: endpoint: mean survival time, higher = longer survival
Method in brief: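 Survival endpoint. Drug-treated group vs vehicle group, expressed as T divided by C. Tumor passaged by transplantation.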

Measured: T/C

CC(C)=CC[Se]c1ncnc2c1ncn2C1OC(CO)C(O)C1O (stereo not drawn)
inactive: dose: 12.5 mg/kg/injection, schedule: Q01DX005 (ip), vehicle: saline 91 % of control | dose: 25.0 mg/kg/injection, schedule: Q01DX005 (ip), vehicle: saline 91 % of control | dose: 50.0 mg/kg/injection, schedule: Q01DX005 (ip), vehicle: saline 87 % of control

N#Cc1ccccc1COCc1ccccc1
inactive: dose: 100.0 mg/kg/injection, schedule: Q01DX009 (ip), vehicle: Klucel (hydroxypropylcellulose) (HPC) 102 % of control | dose: 200.0 mg/kg/injection, schedule: Q01DX009 (ip), vehicle: Klucel (hydroxypropylcellulose) (HPC) 98 % of control | dose: 400.0 mg/kg/injection, schedule: Q01DX009 (ip), vehicle: Klucel (hydroxypropylcellulose) (HPC) 95 % of control

C=C1CC(CC)C(C)OC1=O (stereo not drawn)
inactive: dose: 100.0 mg/kg/injection, schedule: Q01DX001 (ip), vehicle: saline 102 % of control | dose: 200.0 mg/kg/injection, schedule: Q01DX001 (ip), vehicle: saline 102 % of control | dose: 400.0 mg/kg/injection, schedule: Q01DX001 (ip), vehicle: saline 98 % of control

Cc1nc2nc(Cl)c(Cl)nc2[nH]1
inactive: dose: 25.0 mg/kg/injection, schedule: Q04DX003 (ip), vehicle: saline with Tween-80 92 % of control | dose: 50.0 mg/kg/injection, schedule: Q04DX003 (ip), vehicle: saline with Tween-80 97 % of control | dose: 100.0 mg/kg/injection, schedule: Q04DX003 (ip), vehicle: Klucel (hydroxypropylcellulose) (HPC) 102 % of control | dose: 100.0 mg/kg/injection, schedule: Q04DX003 (ip), vehicle: saline with Tween-80 89 % of control
